Results from the NIST ThermoML archive (doi:10.1021/je049824c).
± gives the expanded uncertainty stated by the source.

Key:
[1] = Liquid, Closed cell (Static) method
[2] = excess molar enthalpy (molar enthalpy of mixing); xn = mol fraction of the nth substance listed; details: 14100 kPa, Liquid, Flow calorimetry

COC(=O)C(C)O (stereo not drawn) [methyl 2-hydroxypropanoate]
[1]
Details | vapor or sublimation pressure [kPa]
283.15 K | 0.17 ± 0.04
293.15 K | 0.43 ± 0.04
303.15 K | 0.87 ± 0.04

COC(=O)C(C)O (stereo not drawn) [methyl 2-hydroxypropanoate] + O
excess molar enthalpy [kcal/mol], [2]
Details | 303.15 K | 333.15 K
x2 = 0.0632 | 0.004 ± 0.000215 | -0.00394 ± 0.000215
x2 = 0.1202 | 0.00357 ± 0.000213 | -0.00928 ± 0.000311
x2 = 0.219 | -0.000437 ± 0.000189 | -0.0211 ± 0.000526
x2 = 0.3016 | -0.00462 ± 0.000222 | -0.0288 ± 0.000693
x2 = 0.3718 | -0.00866 ± 0.000287 | -0.0345 ± 0.000813
x2 = 0.4321 | -0.0134 ± 0.000382 | -0.0398 ± 0.000908
x2 = 0.5083 | -0.0221 ± 0.00055 | -0.0479 ± 0.00108
x2 = 0.5711 | -0.0295 ± 0.000693 | -0.0552 ± 0.00124
x2 = 0.6397 | -0.0384 ± 0.000884 | -0.0643 ± 0.00143
x2 = 0.7195 | -0.0493 ± 0.00112 | -0.0756 ± 0.00167
x2 = 0.7803 | -0.0572 ± 0.00129 | -0.0839 ± 0.00184
x2 = 0.8419 | -0.0642 ± 0.00143 | -0.0901 ± 0.00198
x2 = 0.8988 | -0.0647 ± 0.00143 | -0.0891 ± 0.00196
x2 = 0.9411 | -0.0552 ± 0.00124 | -0.0767 ± 0.0017
x2 = 0.9796 | -0.0288 ± 0.000693 | -0.0394 ± 0.000908
